One data set deals with Hek cells. Briefly: Viability (XTT) and morphology of Hek cells co-transfected with Karet and receptors. Format: cell-based, human. The following applies: 24 hours after transfection; for cell morphology: microscope. The method, then:
FIGS. 21a-q are photomicrographs of Hek cells 24 hours after transfection with karet, Trk receptors, EGFR and/or P75 constructs. […] FIG. 21a—cells transfected with TrkA and pcDNA3; FIG. 21b—TrkA and Karet; FIG. 21c—TrkA and Karet F217V; FIG. 21d—Karet and pcDNA4; FIG. 21e—Karet F217V and pcDNA4; FIG. 21f—TrIcA and pcDNA3; FIG. 21g—TrkB and pcDNA3; FIG. 21h—TrkC and pcDNA3; FIG. 21i—TrkA and Karet;
FIG. 21j—TrkB and Karet; FIG. 21k—TrkC and Karet; FIG. 21l—Karet and pcDNA3; FIG. 21m—TrkC (low concentration) and pcDNA3; FIG. 21n—EGFR-Flag and pcDNA3; FIG. 21o—p75 and pcDNA3; FIG. 21p—EGFR-Flag and Ha-Karet; FIG. 21q—p75 and Ha-Karet.
FIGS. 22a-b are histograms depicting the effect of co-transfection of Karet and TrkA on cell death in Hek (FIG. 22a) or NNR5 (FIG. 22b) cells. FIG. 22a—Hek cells were co-transfected with Karet or control vector and TrkA, TrkB and TrkC. Viability of the cells was measured 24 hours after transfection by XTT. *p<0.05; FIG. 22b—NNR5 cells were co-transfected with Karet or control vector and TrkA, TrkB and TrkC. Cells were analyzed by FACS 24 hours after transfection using the dead/live kit. ** p<0.001.
FIG. 23 is a histogram depicting the effect of co-transfection of EGFR and Karet on cell death in Hek cells. Hek cells were co-transfected with Karet or control vector and p75, EGFR and PTB. Viability of the cells was measured 24 hours after transfection by XTT. ** p<0.001.
Cell proliferation was evaluated using the Cell proliferation assay with XTT reagent (Cat. No. 20-300-1000), Biological Industries, Beth Haemek, Israel, according to manufacturer's instructions.
To test whether Karet is capable of inducing cell death in other cells such as human HEK or NNR5 cells, the cells were transfected with various receptors and Karet constructs and the effect on cell death was determined by microscopic observation of cell morphology and using cell viability assays, as follows.

In another data set the target is T1, TrkA.
T1 construct: expressed in transfected cells; host or cells: PC12 6.24 cells (rat PC12 stably overexpressing human TrkA; Hempstead et al., 1992)
As to the kind of experiment: Tyr phosphorylation of TrkA in PC12 6.24 cells. Format: cell-based, human. The following applies: PC12-6.24 cells expressing Karet, anti-phospho-Tyr blot.

The next data set concerns the target T2, TrkC (Homo sapiens, UniProt Q16288).
T2 construct: expressed in transfected cells; host or cells: Hek cells
As to the kind of experiment: Co-immunoprecipitation of Ha Karet with TrkC in Hek cells. Type of data set: binding. Conditions: co-transfected Hek cells. The method, then: FIGS. 24a-d depict co IP of Ha Karet with TrkA, TrkB, TrkC, p75 from co-transfected Hek cells. Cells were co-transfected with Ha Karet or control vector and TrkA, TrkB, TrkC or p75. Cells were lysed with NP40, the HA-beads (beads conjugated to anti-HA antibody) were blocked with Hek lysate, and elution was done for 30 minutes at 37° C. Proteins from anti-HA-IP (FIGS. 24a and b) or from cell lysates without IP (FIGS. 24c and d) were subjected to Western blot analysis and the membranes were probed with anti pan trk (FIGS. 24a and c) or anti-p75 (FIGS. 24b and d) antibodies. Note the specific co-IP of Karet with TrkA (FIG. 24a, lane 1), Karet with TrkB (FIG. 24a, lane 3), Karet with TrkC (FIG. 24a, lane 5) and the lack of IP between karet and p75 (FIG. 24b, lane 7).

The next data set has as its target T3, necdin (Homo sapiens, UniProt Q99608).
T3 construct: expressed in transfected cells
T3 sequence (Q99608 1-321): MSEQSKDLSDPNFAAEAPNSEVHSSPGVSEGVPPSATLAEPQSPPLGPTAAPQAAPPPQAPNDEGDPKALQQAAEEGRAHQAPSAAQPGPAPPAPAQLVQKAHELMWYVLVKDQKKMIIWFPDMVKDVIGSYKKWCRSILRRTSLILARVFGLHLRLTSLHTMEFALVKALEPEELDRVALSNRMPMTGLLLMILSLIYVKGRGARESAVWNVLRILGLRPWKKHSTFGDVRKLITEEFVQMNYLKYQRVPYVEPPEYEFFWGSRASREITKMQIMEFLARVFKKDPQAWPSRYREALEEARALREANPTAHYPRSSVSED
Briefly: Co-immunoprecipitation of Karet with necdin. Type of data set: binding. Conditions: necdin-PC12 cells, during 50 ng/ml NGF treatment. The method, then:
Karet tagged with the HA epitope was immunoprecipitated with anti-HA antibody, the precipitated proteins were separated electrophoretically, and gel blots were incubated with anti-necdin. In control experiments the HA-Karet was substituted with vector.
FIGS. 4a-c are co-immunoprecipitation assay results depicting the influence of NGF treatment on TrkA-Karet interaction. FIG. 4a depicts that TrkA-Karet interaction occurred prior to NGF treatment and was enhanced after ligand stimulation for 10 minutes (10 m) or 2 hours (2 h). HA-Karet was electroporated into cell line PC12, and the cells were treated with 50 ng/ml NGF for the indicated time periods in order to activate p75 and TrkA. Karet tagged with the HA epitope was immunoprecipitated with anti-HA antibody, the precipitated proteins were separated electrophoretically, and gel blots were incubated with anti-TrkA antibody (RTA). FIG. 4b depicts that necdin seems to compete with TrkA for binding to Karet. myc-Karet was electroporated into necdin stable cell line, and the cells were treated with 50 ng/ml NGF for the indicated time periods. Karet tagged with the myc epitope was immunoprecipitated with anti-myc antibody, the precipitated proteins were separated electrophoretically, and gel blots were incubated with anti-TrkA antibody (RTA). […] A blot from the same experiment was stripped and re-incubated with anti-necdin antibody. […]

The next data set deals with T4, EGFR (Homo sapiens, UniProt P00533).
T4 construct: expressed in transfected cells; host or cells: HEK cells
As to the kind of experiment: Co-immunoprecipitation of HA-Karet with EGFR in HEK cells. Format: binding. Conditions: co-transfected HEK cells. The method, then: FIG. 3g is a co-immunoprecipitation assay depicting co-immunoprecipitation of HA-Karet with EGFR in co-transfected HEK cells. Cells were co-transfected with Ha Karet or control vector and EGFR. Cells were lysed with NP40, the HA-beads (i.e., beads conjugated to HA antibody) were blocked with Hek lysate, and elution was done for 30 minutes at 37° C. The membranes were probed with anti FLAG antibody. Note the co-immunoprecipitation of Karet with EGFR in HEK cells.

The subject of a further data set is COS cells. As to the kind of experiment: Viability of COS cells expressing Karet. Type of data set: cell-based.
[1] abbreviates: Hek cells co-transfected with TrkA.

T1 sequence (P04629 33-796): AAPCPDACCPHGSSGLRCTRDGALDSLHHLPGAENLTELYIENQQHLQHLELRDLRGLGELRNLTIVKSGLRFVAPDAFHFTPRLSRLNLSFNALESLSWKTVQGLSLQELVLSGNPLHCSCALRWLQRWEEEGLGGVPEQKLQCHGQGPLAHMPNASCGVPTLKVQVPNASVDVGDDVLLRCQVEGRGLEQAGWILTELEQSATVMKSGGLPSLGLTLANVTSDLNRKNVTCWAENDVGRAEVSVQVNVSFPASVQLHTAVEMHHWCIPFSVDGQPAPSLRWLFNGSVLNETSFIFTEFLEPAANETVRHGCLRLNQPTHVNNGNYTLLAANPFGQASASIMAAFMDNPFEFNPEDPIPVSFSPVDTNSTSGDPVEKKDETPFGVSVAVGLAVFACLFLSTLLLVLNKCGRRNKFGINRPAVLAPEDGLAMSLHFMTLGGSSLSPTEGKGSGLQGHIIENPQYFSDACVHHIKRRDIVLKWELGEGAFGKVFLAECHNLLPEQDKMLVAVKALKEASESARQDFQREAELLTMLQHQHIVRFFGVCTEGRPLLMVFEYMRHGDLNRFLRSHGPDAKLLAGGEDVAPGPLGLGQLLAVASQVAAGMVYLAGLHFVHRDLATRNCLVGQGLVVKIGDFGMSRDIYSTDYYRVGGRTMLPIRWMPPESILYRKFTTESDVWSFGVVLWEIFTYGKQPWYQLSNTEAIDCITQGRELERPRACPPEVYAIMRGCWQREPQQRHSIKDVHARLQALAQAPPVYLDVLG

Consider “Karet F217V: full-length mouse Karet with phenyl alanine at position 217 point mutated to valine”, for which, in the data set with Hek cells (setting [1]), the cell morphology result was “transfection-induced cell death”.
On to “Karet: full-length mouse Karet protein (SEQ ID NO:1), PTB domain protein, expressed from pcDNA3 with HA tag”, for which the “phosphorylation of TrkA” value with TrkA is on record as “significantly enhanced the phosphorylation of the receptor”. In the data set with TrkC, the “co-immunoprecipitation with TrkC” value was “co-immunoprecipitated”. In addition, in the data set with necdin, the interaction with necdin entry is “robust and constant”. The “co-immunoprecipitation with EGFR” value with EGFR is reported as “co-immunoprecipitation”. In the data set with COS cells, the cell viability result is on record as “no reduction in cell viability”. The “decrease in living cells” value in the data set on Hek cells (HEK cells co-transfected with Karet and TrkA, XTT) is 50%. The “decrease in cell viability” value with Hek cells (Hek cells co-transfected with EGFR and Karet, XTT) was 40%. In addition, the cell morphology result with Hek cells (Hek cells co-transfected with EGFR) and in the data set on Hek cells (setting [1]) was “morphology change which is consistent with cell death” in each case.

For the origin of these results see US20090036380A1, “Composition And Method For Brain Tumor Therapy” (Yeda Research and Development Co., Ltd., priority 2006, published 2009).
